We go through ten compounds from US5502035A, “N-terminus modified analogs of LHRH” (Tap Holdings Inc., priority 1994, dated 1996).

Non-standard residues stand in square brackets, D forms with d. Residues, ends and D or L forms follow the SMILES beside them. Groups on a side chain read outwards from the residue. *: point of attachment. Shikimoyl = O=C(C1=C[C@@H](O)[C@@H](O)[C@H](O)C1)*; X4 = O=C([C@@H](O)[C@@H](O)[C@H](O)[C@@H](O)CO)*; dPhe(4-Cl) = N[C@H](Cc1ccc(Cl)cc1)C(=O)O; d2Nal = N[C@H](Cc1ccc2ccccc2c1)C(=O)O; NMeY = CN[C@@H](Cc1ccc(O)cc1)C(=O)O; NMeF = CN[C@@H](Cc1ccccc1)C(=O)O; d3Pal = N[C@H](Cc1cccnc1)C(=O)O; NMeL = CN[C@@H](CC(C)C)C(=O)O; Nicotinoyl = O=C(c1cccnc1)*; Aze = O=C(O)[C@@H]1CCN1

What is called Kb is the equilibrium dissociation constant of an antagonist, usually derived from a functional assay.

The target of the assay is T1, LHRH (Rattus norvegicus, UniProt P30969).
T1 construct: endogenous in cells; host or cells: rat pituitary cells (own knowledge of the cited Haviv 1989 method)
T1 sequence (P30969 1-327): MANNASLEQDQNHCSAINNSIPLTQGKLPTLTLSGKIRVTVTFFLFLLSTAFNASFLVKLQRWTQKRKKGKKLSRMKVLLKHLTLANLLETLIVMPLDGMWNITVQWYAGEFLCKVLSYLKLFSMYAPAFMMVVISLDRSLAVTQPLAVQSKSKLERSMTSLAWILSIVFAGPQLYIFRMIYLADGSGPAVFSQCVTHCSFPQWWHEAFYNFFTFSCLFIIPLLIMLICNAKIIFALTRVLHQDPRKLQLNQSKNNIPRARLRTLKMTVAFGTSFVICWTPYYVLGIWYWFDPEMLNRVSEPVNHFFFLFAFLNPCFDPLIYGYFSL
Description: in vitro test for LHRH antagonist potency (pA2). Type of assay: cell-based. The conditions noted are these: negative logarithm of the antagonist concentration required to shift the response curve produced by the agonist leuprolide to two-fold higher concentration. In short, it runs like this: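 Antagonism read against the agonist leuprolide on rat LHRH receptor; value is pA2, the −log of antagonist concentration that doubles the agonist concentration needed for the same response.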

On to `CC(C)C[C@H](NC(=O)[C@@H](CCCCNC(=O)C1=C[C@@H](O)[C@@H](O)[C@H](O)C1)NC(=O)[C@H](Cc1ccccc1)N(C)C(=O)[C@H](CO)NC(=O)[C@@H](Cc1cccnc1)NC(=O)[C@@H](Cc1ccc(Cl)cc1)NC(=O)[C@@H](Cc1ccc2ccccc2c1)NC(=O)CNC(=O)C1=C[C@@H](O)[C@@H](O)[C@H](O)C1)C(=O)N[C@@H](CCCNC(=N)N)C(=O)N1CCC[C@H]1C(=O)N[C@H](C)C(N)=O` [Example 17, N-Shikimyl-Gly-D2Nal-D4ClPhe-D3Pal-Ser-NMePhe-DLys(Shik)-Leu-Arg-Pro-DAlaNH2] (Shikimoyl-G[d2Nal][dPhe(4-Cl)][d3Pal]S[NMeF][dK](Shikimoyl)LRP[dA]-NH2), for which the Kb is 0.0112 nM.
With `CC[C@H](C)[C@H](NC(=O)[C@@H](CCCCNC(=O)C1=C[C@@H](O)[C@@H](O)[C@H](O)C1)NC(=O)[C@H](Cc1ccc(O)cc1)N(C)C(=O)[C@H](CO)NC(=O)[C@@H](Cc1cccnc1)NC(=O)[C@@H](Cc1ccc(Cl)cc1)NC(=O)[C@@H](Cc1ccc2ccccc2c1)NC(=O)CNC(=O)C1=C[C@@H](O)[C@@H](O)[C@H](O)C1)C(=O)N[C@@H](CCCNC(=N)N)C(=O)N1CCC[C@H]1C(=O)N[C@H](C)C(N)=O` [Example 18a, N-Shikimyl-Gly-D2Nal-D4ClPhe-D3Pal-Ser-NMeTyr-DLys(Shik)-Ile-Arg-Pro-DAlaNH2] (Shikimoyl-G[d2Nal][dPhe(4-Cl)][d3Pal]S[NMeY][dK](Shikimoyl)IRP[dA]-NH2), the Kb is 0.0166 nM.
Take `CC(C)C[C@@H](C(=O)N[C@@H](CCCNC(=N)N)C(=O)N1CCC[C@H]1C(=O)N[C@H](C)C(N)=O)N(C)C(=O)[C@@H](CCCCNC(=O)C1=C[C@@H](O)[C@@H](O)[C@H](O)C1)NC(=O)[C@H](Cc1ccc(O)cc1)N(C)C(=O)[C@H](CO)NC(=O)[C@@H](Cc1cccnc1)NC(=O)[C@@H](Cc1ccc(Cl)cc1)NC(=O)[C@@H](Cc1ccc2ccccc2c1)NC(=O)CNC(=O)C1=C[C@@H](O)[C@@H](O)[C@H](O)C1` [Example 18b, N-Shikimyl-Gly-D2Nal-D4ClPhe-D3Pal-Ser-NMeTyr-DLys(Shik)-NMeLeu-Arg-Pro-DAlaNH2] (Shikimoyl-G[d2Nal][dPhe(4-Cl)][d3Pal]S[NMeY][dK](Shikimoyl)[NMeL]RP[dA]-NH2): the Kb was 0.00912 nM.
For `CC(C)C[C@H](NC(=O)[C@@H](CCCCNC(=O)C1=C[C@@H](O)[C@@H](O)[C@H](O)C1)NC(=O)[C@H](Cc1ccc(O)cc1)N(C)C(=O)[C@H](CO)NC(=O)[C@@H](Cc1cccnc1)NC(=O)[C@@H](Cc1ccc(Cl)cc1)NC(=O)[C@@H](Cc1ccc2ccccc2c1)NC(=O)CNC(=O)C1=C[C@@H](O)[C@@H](O)[C@H](O)C1)C(=O)N[C@@H](CCCNC(=N)N)C(=O)N1CC[C@H]1C(=O)N[C@H](C)C(N)=O` [Example 19, N-Shikimyl-Gly-D2Nal-D4ClPhe-D3Pal-Ser-NMeTyr-DLys(Shik)-Leu-Arg-Aze-DAlaNH2] (Shikimoyl-G[d2Nal][dPhe(4-Cl)][d3Pal]S[NMeY][dK](Shikimoyl)LR[Aze][dA]-NH2), the Kb was 0.0407 nM.
To `CC(C)C[C@H](NC(=O)[C@@H](CCCCNC(=O)CNC(=O)CNC(=O)c1cccnc1)NC(=O)[C@H](Cc1ccc(O)cc1)N(C)C(=O)[C@H](CO)NC(=O)[C@@H](Cc1cccnc1)NC(=O)[C@@H](Cc1ccc(Cl)cc1)NC(=O)[C@@H](Cc1ccc2ccccc2c1)NC(=O)CNC(=O)C1=C[C@@H](O)[C@@H](O)[C@H](O)C1)C(=O)N[C@@H](CCCNC(=N)N)C(=O)N1CCC[C@H]1C(=O)N[C@H](C)C(N)=O` [Example 20, N-Shikimyl-Gly-D2Nal-D4ClPhe-D3Pal-Ser-NMeTyr-DLys(GlyGlyNic)-Leu-Arg-Pro-DAlaNH2] (Shikimoyl-G[d2Nal][dPhe(4-Cl)][d3Pal]S[NMeY][dK]([Gly-Gly-Nicotinoyl])LRP[dA]-NH2) belongs 0.0263 nM; to `CC(C)C[C@H](NC(=O)[C@@H](CCCCNC(=O)CNC(=O)[C@@H](O)[C@@H](O)[C@H](O)[C@@H](O)CO)NC(=O)[C@H](Cc1ccc(O)cc1)N(C)C(=O)[C@H](CO)NC(=O)[C@@H](Cc1cccnc1)NC(=O)[C@@H](Cc1ccc(Cl)cc1)NC(=O)[C@@H](Cc1ccc2ccccc2c1)NC(=O)CNC(=O)[C@@H](O)[C@@H](O)[C@H](O)[C@@H](O)CO)C(=O)N[C@@H](CCCNC(=N)N)C(=O)N1CCC[C@H]1C(=O)N[C@H](C)C(N)=O` [Example 21, N-(L-Gulonyl)-Gly-D2Nal-D4ClPhe-D3Pal-Ser-NMeTyr-DLys(Gly-L-Gulonyl)-Leu-Arg-Pro-DAlaNH2] (X4-G[d2Nal][dPhe(4-Cl)][d3Pal]S[NMeY][dK]([Gly-X4])LRP[dA]-NH2), 0.0316 nM; to `CC(C)C[C@H](NC(=O)[C@@H](CCCCNC(=O)CNC(=O)C1=C[C@@H](O)[C@@H](O)[C@H](O)C1)NC(=O)[C@H](Cc1ccc(O)cc1)N(C)C(=O)[C@H](CO)NC(=O)[C@@H](Cc1cccnc1)NC(=O)[C@@H](Cc1ccc(Cl)cc1)NC(=O)[C@@H](Cc1ccc2ccccc2c1)NC(=O)CNC(=O)c1cccnc1)C(=O)N[C@@H](CCCNC(=N)N)C(=O)N1CCC[C@H]1C(=O)N[C@H](C)C(N)=O` [Example 22, N-Nicotinyl-Gly-D2Nal-D4ClPhe-D3Pal-Ser-NMeTyr-DLys(Gly-Shik)-Leu-Arg-Pro-DAlaNH2] (Nicotinoyl-G[d2Nal][dPhe(4-Cl)][d3Pal]S[NMeY][dK]([Gly-Shikimoyl])LRP[dA]-NH2), 0.00339 nM.
To `CC[C@H](C)[C@H](NC(=O)[C@@H](CCCCNC(=O)C1=C[C@@H](O)[C@@H](O)[C@H](O)C1)NC(=O)[C@H](Cc1ccc(O)cc1)N(C)C(=O)[C@H](CO)NC(=O)[C@@H](Cc1cccnc1)NC(=O)[C@@H](Cc1ccc(Cl)cc1)NC(=O)[C@@H](Cc1ccc2ccccc2c1)NC(=O)CNC(=O)c1cccnc1)C(=O)N[C@@H](CCCNC(=N)N)C(=O)N1CCC[C@H]1C(=O)N[C@H](C)C(N)=O` [Example 23a, N-Nicotinyl-Gly-D2Nal-D4ClPhe-D3Pal-Ser-NMeTyr-DLys(Shik)-Ile-Arg-Pro-DAlaNH2] (Nicotinoyl-G[d2Nal][dPhe(4-Cl)][d3Pal]S[NMeY][dK](Shikimoyl)IRP[dA]-NH2) belongs 0.0195 nM.
In the case of `CC(C)C[C@@H](C(=O)N[C@@H](CCCNC(=N)N)C(=O)N1CCC[C@H]1C(=O)N[C@H](C)C(N)=O)N(C)C(=O)[C@@H](CCCCNC(=O)C1=C[C@@H](O)[C@@H](O)[C@H](O)C1)NC(=O)[C@H](Cc1ccc(O)cc1)N(C)C(=O)[C@H](CO)NC(=O)[C@@H](Cc1cccnc1)NC(=O)[C@@H](Cc1ccc(Cl)cc1)NC(=O)[C@@H](Cc1ccc2ccccc2c1)NC(=O)CNC(=O)c1cccnc1` [Example 23b, N-Nicotinyl-Gly-D2Nal-D4ClPhe-D3Pal-Ser-NMeTyr-DLys(Shikimyl)-NMeLeu-Arg-Pro-DAlaNH2] (Nicotinoyl-G[d2Nal][dPhe(4-Cl)][d3Pal]S[NMeY][dK](Shikimoyl)[NMeL]RP[dA]-NH2), the Kb was 0.0186 nM.
To `CC(C)C[C@H](NC(=O)[C@@H](CCCCNC(=O)C1=C[C@@H](O)[C@@H](O)[C@H](O)C1)NC(=O)[C@H](Cc1ccc(O)cc1)N(C)C(=O)[C@H](CO)NC(=O)[C@@H](Cc1cccnc1)NC(=O)[C@@H](Cc1ccc(Cl)cc1)NC(=O)[C@@H](Cc1ccc2ccccc2c1)NC(=O)CNC(=O)c1cccnc1)C(=O)N[C@@H](CCCNC(=N)N)C(=O)N1CC[C@H]1C(=O)N[C@H](C)C(N)=O` [Example 24, N-Nicotinyl-Gly-D2Nal-D4ClPhe-D3Pal-Ser-NMeTyr-DLys(Shikimyl)-Leu-Arg-Aze-DAlaNH2] (Nicotinoyl-G[d2Nal][dPhe(4-Cl)][d3Pal]S[NMeY][dK](Shikimoyl)LR[Aze][dA]-NH2) belongs 0.0282 nM.
